Structures can show the parent of a compound that is named as a salt. Where two headings read alike, the source gives them in different places.
Columns and labels:
[1] = test system: arterial blood pressure and dp/dt max. (left ventricle); assay: Cardiotonic and blood pressure effects in anesthetized cats; assay type: in vivo, cat; settings: 2 mg/kg intravenously; for Change in blood pressure (first value of the pair printed with a slash): first of two values; for Change in blood pressure (second value of the pair printed with a slash): second of two values; for change in vivo at 2 mg/kg: Felis catus, iv, dp/dt max., index of contractility, read-out: Increase in dp/dt
Experimental: 1. Cardiotonic and blood pressure effects
Cats of both sexes with a body weight of 2 to 4 kg were anesthetized by intraperitoneal injection of 30 mgm/kg of sodium pentobarbital. The arterial blood pressure was measured by a Statham pressure transducer (P23 Dc) from the aorta abdominalis via a PVA-Catheter, which was inserted through the right arteria femoralis. The ventricle pressure was measured by a cathetertip manometer (type MILLAR PC-350), which was introduced into the left ventricle via the right arteria carotis. The indices of contractility dp/dt max. were obtained by a differentiating amplifier. The arterial blood pressure and dp/dt max. were continuously recorded by direct-writer. The test compounds were injected intravenously at 2 mg/kg.

Acute toxicity in mice = settings: mouse, in vivo, dose at which 50% of the animals died
[2] = test system: isolated electrically stimulated left auricle of the guinea pig; assay: Effect on the effective refractory period of the isolated electrically stimulated left auricle of the guinea pig; settings: Cavia porcellus; Tyrode's solution, 37° C.; cumulative dosing; graphically determined from dose response curves; read-out: EC50 (concentration which reduces the maximum stimulation frequency by 50%)
Experimental: 2. Effect on the effective refractory period of the isolated electrically stimulated left auricle of the guinea pig
Guinea pigs of both sexes were killed by a blow on the neck. After opening the thorax, the heart was quickly removed and transferred into a Tyrode's solution (37° C.). The auricles were separated from the ventricles along the Annulus fibrosus, and only the left auricles were used. Electrical stimulation was performed by a Grass stimulator, S4G, with square wave impulses of 1 millisecond duration and a stimulation voltage of 12 V. The auricles were suspended in Tyrode's solution at 37° C. containing 136.8 mVal NaCl, 2.68 mVal KCL, 0.2625 mVal MgCl2, 0.417 mVal NaH2 PO4, 11.9 mVal NaHCO3, 1.8 mVal CaCl, and 3 gm of glucose perliter. The solution was continuously aerated with O2 /CO2 (98%/2%). The isometric contractions were measured with a force displacement transducer and recorded on a Grass polygraph (P5). The number of the contractions was counted out and compared with the frequency indicated at the stimulator.
The maximum stimulation frequency was determined by increasing the stimulation rate every 10 seconds by 1 Hz. The maximum stimulation frequency was measured in preliminary tests by determining the average value. During the intervals of 5 minutes each between the measurements, the stimulation rate was 0.5 Hz.
After the determination of the average value the test compound was added to the Tyrode's solution and the stimulation rate was maintained at 0.5 Hz. During the first 5 minutes the inotropic effect of the compound was observed. Measurements were performed every 5 and 10 minutes after addition of the test compound. The average value resulting from the two tests (value at 5 minutes and 10 minutes, respectively) was taken as the maximum stimulation frequency after addition of the test compound. At first small doses were given, and after determination of the maximum stimulation frequency the dose was increased cumulatively and the maximum stimulation frequency for that dose was measured.
The maximum stimulation frequency is measured by increasing the stimulation rate. When the interval between two stimuli is shortened, a stimulation rate is reached at which every second stimulation falls into the refractory period of the foregoing contraction and will not be answered with a contraction. So, the maximum stimulation frequency is a measure of the effective refractory period. Compounds which reduce the maximum stimulation frequency, prolong the refractory period.
From the dose response curves the concentrations which reduce the maximum stimulation frequency by 50%, were graphically determined: […]

[3] = test system: chloroform-induced ventricular fibrillation; assay: Antiarrhythmic effect against chloroform-induced ventricular fibrillation in mice; assay type: in vivo; settings: Mus musculus, 1 min, male mice, ventricular fibrillation prevented in 50% of animals
Experimental: 3. Antiarrhythmic effect against chloroform-induced ventricular fibrillation in mice
On placing a mouse into a chloroform-saturated atmosphere, the animal becomes anesthetized after 40 sec., the spontaneous respiration stops, and after 20 sec. more, gasping respiration sets in.
Immediately after the gasping respiration has ceased, the mouse is taken out of the chloroform atmosphere, the thorax is opened, and the heart is quickly exposed to allow inspection of the heart movement. For 1 minute after opening the thorax, spontaneous ventricular fibrillation occurs in nearly all the animals or can be induced by touching the heart with tweezers.
Pre-treatment with antiarrhythmic compounds reduces the number of animals which show fibrillation in a dose-dependent way. The dose which reduces the number of animals having fibrillations by 50% (ED50) is calculated by means of dose-response curves and the standard deviation is determined [MILLER, L. C. and TAINTER, M. L., Proc. Soc. Exp. Biol. Med. 57, 261 (1944)].
The tests were performed on male mice, body weight 20-25 gm. Each dose was tested on 10 animals.
The dose was determined, at which after i.v. and p.o. administration one minute before starting the test, the ventricular fibrillation was prevented in 50% of the animals.

[4] = po, read-out: Toxicity (LD50) p.o.
[5] = iv, i.v. one minute before test, read-out: ED50 i.v.
[6] = po, p.o. one minute before test, read-out: ED50 p.o.

Row | EC50 [2] | Structure (SMILES) | Duration [1] | Change in blood pressure (first value of the pair printed with a slash) [1] | Change in blood pressure (second value of the pair printed with a slash) [1] | change in vivo at 2 mg/kg [1] | LD50 (Acute toxicity in mice; [4]) | ED50 [3, 5] | ED50 [3, 6] | LD50 (Acute toxicity in mice; ip, read-out: Toxicity (LD50) i.p.)
1 |  | COc1ccc(-c2nc3ccc4c(c3[nH]2)C(=O)NC(=O)C4(C)C)c(OC)c1 [A, 7,7-Dimethyl-2-(2,4-dimethoxy-phenyl)-5H,7H-imidazo[4,5-h]isoquinoline-4,6-dione hydrochloride] | > 24 min | -49 mm Hg | -48 mm Hg |  |  |  |  | 
2 |  | COc1cc(S(C)(=O)=O)ccc1-c1nc2ccc3c(c2[nH]1)C(=O)NC(=O)C3(C)C [B, 7,7-Dimethyl-2-(2-methoxy-4-methylsulfonyl-phenyl)-5H,7H-imidazo[4,5-h]isoquinoline-4,6-dione] | > 56 min | -52 mm Hg | -80 mm Hg |  |  |  |  | 
3 |  | CC1(C)C(=O)NC(=O)c2c1ccc1[nH]c(CCc3ccccc3)nc21 [C] | > 20 min | -40 mm Hg | -50 mm Hg |  |  |  |  | 
4 |  | COc1ccccc1-c1nc2ccc3c(c2[nH]1)C(=O)NC(=O)C3(C)C [Compound E, 7,7-Dimethyl-2-(2-methoxy-phenyl)-5H,7H-imidazo[4,5-h]isoquinoline-4,6-dione hydrochloride] | 12 min | -46 mm Hg | -63 mm Hg |  |  |  |  | 
5 |  | CC1(C)C(=O)NC(=O)c2c1ccc1nc(Cc3ccccc3)[nH]c21 [D, 7,7-Dimethyl-2-benzyl-5H,7H-imidazo[4,5-h]isoquinoline-4,6-dione] | > 57 min | -67 mm Hg | -63 mm Hg | 110% | > 300 mg/kg |  |  | 
6 |  | CC1(C)C(=O)NC(=O)c2c1ccc1nc(C3CCCCC3)[nH]c21 [F] | > 42 min | -23 mm Hg | -40 mm Hg |  | > 300 mg/kg |  |  | 
7 |  | CC1(C)C(=O)NC(=O)c2c1ccc1nc(-c3ccc(Cl)cc3)[nH]c21 [G, 7,7-Dimethyl-2-(4-chloro-phenyl)-5H,7H-imidazo[4,5-h]isoquinoline-4,6-dione hydrochloride] | 9 min | -40 mm Hg | -30 mm Hg |  |  |  |  | 
8 |  | CSc1ccc(-c2nc3ccc4c(c3[nH]2)C(=O)NC(=O)C4(C)C)cc1 [H, 7,7-Dimethyl-2-(4-methylmercapto-phenyl)-5H,7H-imidazo[4,5-h]isoquinoline-4,6-dione] | > 12 min | -45 mm Hg | -45 mm Hg |  |  |  |  | 
9 |  | COc1ccc(-c2nc3ccc4c(c3[nH]2)C(=O)NC(=O)C4(C)C)cc1 [I, 7,7-Dimethyl-2-(4-methoxy-phenyl)-5H,7H-imidazo[4,5-h]isoquinoline-4,6-dione hydrochloride] | > 19 min | -33 mm Hg | -46 mm Hg |  |  |  |  | 
10 |  | CC1(C)C(=O)NC(=O)c2c1ccc1nc(-c3ccc(O)cc3)[nH]c21 [J, 7,7-Dimethyl-2-(4-hydroxy-phenyl)-5H,7H-imidazo[4,5-h]isoquinoline-4,6-dione hydrochloride] | > 29 min | -47 mm Hg | -58 mm Hg |  |  |  |  | 
11 |  | COc1ccc(S(C)(=O)=O)cc1-c1nc2ccc3c(c2[nH]1)C(=O)NC(=O)C3(C)C [K, 7,7-Dimethyl-2-(2-methoxy-5-methylsulfonyl-phenyl)-5H,7H-imidazo[4,5-h]isoquinoline-4,6-dione] | > 107 min | -70 mm Hg | -67 mm Hg | 157% | > 300 mg/kg |  |  | 
12 |  | COc1ccc([S+](C)[O-])cc1-c1nc2ccc3c(c2[nH]1)C(=O)NC(=O)C3(C)C (centres unmarked) [L, 7,7-Dimethyl-2-(2-methoxy-5-methylsulfinyl-phenyl)-5H,7H-imidazo[4,6-h]isoquinoline-4,6-dione hydrochloride] | > 70 min | -42 mm Hg | -53 mm Hg |  |  |  |  | 
13 |  | CC1(C)C(=O)NC(=O)c2c1ccc1nc(C3CC3)[nH]c21 [M, hydrochloride] | > 55 min | -41 mm Hg | -49 mm Hg | 108% |  |  |  | 
14 | 1.8 µg/mL | CCN(CC)CCN1C(=O)c2c(ccc3nc(-c4ccccc4)[nH]c23)C(C)(C)C1=O [N, 7,7-Dimethyl-2-phenyl-5-(2-diethylamino-ethyl)-5H,7H-imidazo[4,5-h]isoquinoline-4,6-dione dihydrochloride] |  |  |  |  |  | 2.4 mg/kg | 21.2 mg/kg | 
15 | 6.7 µg/mL | CC1(C)C(=O)N(CCCN2CCCCC2)C(=O)c2c1ccc1nc(-c3ccccc3)[nH]c21 [P, 7,7-Dimethyl-2-phenyl-5-(3-piperidino-propyl)-5H,7H-imidazo[4,5-h]isoquinoline-4,6-dione dihydrochloride] |  |  |  |  |  | 10.5 mg/kg | 130 mg/kg | 
16 | 4.8 µg/mL | CN(C)CCN1C(=O)c2c(ccc3nc(-c4ccccc4)[nH]c23)C(C)(C)C1=O [Q, 7,7-Dimethyl-2-phenyl-5-(2-dimethylamino-ethyl)-5H,7H-imidazo[4,5-h]isoquinoline-4,6-dione-dihydrochloride] |  |  |  |  |  | 6.1 mg/kg | 23.5 mg/kg | 

Row | Structure (SMILES) | EC50 [2] | Duration [1] | Change in blood pressure (first value of the pair printed with a slash) [1] | Change in blood pressure (second value of the pair printed with a slash) [1] | change in vivo at 2 mg/kg [1] | LD50 (Acute toxicity in mice; [4]) | ED50 [3, 5] | ED50 [3, 6] | LD50 (Acute toxicity in mice; ip, read-out: Toxicity (LD50) i.p.)
17 | CCN(CC)CCCN1C(=O)c2c(ccc3nc(-c4ccccc4)[nH]c23)C(C)(C)C1=O [O, 7,7-Dimethyl-2-phenyl-5-(3-diethylamino-propyl)-5H,7H-imidazo[4,5-h]isoquinoline-4,6-dione dihydrochloride] | 5 µg/mL |  |  |  |  | 92 mg/kg | 6.4 mg/kg | 29 mg/kg | 61 mg/kg
